Experiment in all cases: NCI tumour cell line growth inhibition, 48 h
Assay [1] concerns MDA-N.
Assay [2] deals with MCF7 breast.
Assay [3] deals with NCI-H460 lung.
Assay [4] has as its system HCT-116 colon.
Assay [5] has as its system OVCAR-3 ovarian.
The test system of assay [6] is HOP-92 NSCLC.
Assay [7] has as its system IGROV1 ovarian.
For assay [8], the system named is SN12C renal.
Assay [9] concerns SF-295 CNS.
For assay [10], the system named is SK-MEL-5 melanoma.

The structures appear in SMILES notation. “And” between values parts separate entries of the source, which are not always exact repeats. Equal entries are not always repeated.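 Compound exposure: 48 hours, 5 concentrations, 96-well plates. Abbreviation: GI50, concentration required for 50% inhibition of growth. TGI marks complete inhibition of growth.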 Bounds are passed on as bounds.

This note sets out measurements from PubChem BioAssay (NCI).

`C/C(=C\CNc1ncnc2nc(Cl)[nH]c12)CO`: the TGI in assay [1], in assay [2], in assay [3], in [4], in [5] and in [6] was above 100 µM in each case. Further, the TGI in [7], in assay [8], in [9] and in assay [10] was above 100 µM throughout.

With `O=P(O)(O)OP(=O)(O)O`, the TGI in [1], in assay [2], in assay [3], in assay [4], in [5] and in assay [6] was above 100 µM each time. Also, the TGI in [7], in assay [8] and in [10] was above 100 µM in each case.

Regarding `COC(=O)c1c(O)ccc2c1c1c(n2Cc2ccccn2)C(=O)c2ccccc2C1`, the TGI in assay [1], in assay [2], in assay [3], in assay [4], in assay [5] and in assay [7] was above 100 µM throughout. The TGI in assay [8], in assay [9] and in assay [10] was above 100 µM in each case.

As for `Fc1cc(C2=C[C@H](c3ccc4c(c3)OCO4)NC(=S)N2)c(Cl)cc1Cl`, the TGI in assay [1], in assay [2], in assay [3], in assay [4], in assay [5] and in [6] was above 100 µM each time. Moreover, the TGI in [7] was above 100 µM; in assay [8], 90.8 µM; in [9], above 100 µM; in [10] it was 25.9 µM.

As for `Clc1ccc(NCc2nnc(COc3ccc(OCc4nnc(CNc5ccc(Cl)cc5)o4)c(Cl)c3)o2)cc1`, the TGI in assay [1] is above 100 µM; in assay [2], 88.3 µM; in assay [3] it was above 100 µM; in [4] it was above 100 µM; in assay [5], 93.5 µM; in [6], 83.5 µM. For the same compound, the TGI in assay [7] is above 100 µM; in assay [8] it was above 100 µM; in assay [9], above 100 µM; in assay [10] it was 53.6 µM.

Regarding `CCOC(=O)C(C)OC(=O)c1ccc(C)cc1` (configuration not stated), the TGI in [3], in [4], in assay [5], in assay [6], in assay [7] and in assay [8] was above 100 µM throughout. This compound also came in with a TGI in assay [10] above 100 µM.

As to `CN(C)C/C=C(/c1ccc(Br)cc1)c1cccnc1`, the TGI in assay [1], in assay [2], in assay [3], in assay [4], in [5] and in assay [6] was above 100 µM throughout. Also, the TGI in [7] was above 100 µM; in [8], above 100 µM; in assay [9], 63.5 µM; in assay [10], 45.5 µM.

As for `CCCCCCOC(=O)C(N)Cc1ccc(OC)cc1` (configuration not stated), the TGI in assay [2], in assay [3], in assay [4], in [5], in assay [6] and in assay [7] was above 100 µM in each case. The TGI in assay [8], in assay [9] and in assay [10] was above 100 µM throughout.

For the compound `O=C(N/N=C\c1ccc([N+](=O)[O-])cc1)Nc1ccccc1`, the TGI in assay [1], in assay [2], in assay [3], in assay [4], in assay [5] and in [6] was above 100 µM in each case. For the same compound, the TGI in assay [7], in assay [8], in [9] and in assay [10] was above 100 µM throughout.

With `NC(CCc1ccccc1)(C(=O)O)c1ccccc1` (configuration not stated), the TGI in assay [1], in assay [3], in assay [4], in [5], in assay [6] and in assay [7] was above 100 µM each time. For the same compound, the TGI in assay [8], in assay [9] and in assay [10] was above 100 µM throughout.

For `O=c1oc2c(ccc3occc32)c(N2CCCCC2)c1-c1ccccc1`, the TGI in assay [2], in assay [3], in assay [4], in [5], in assay [6] and in assay [7] was above 100 µM in each case. The TGI in assay [8], in assay [9] and in assay [10] was above 100 µM each time.

`C[C@H](Nc1ccc(C#N)n(C)c1=O)c1cc2cc(Cl)ccc2[nH]c1=O`: the GI50 is 23.2 µM in [2]; 32.8 µM in [3]; 23.9 µM in assay [4]; 24.1 µM in assay [5]; 2800 nM in assay [6]; 16 µM in [7]. Besides, the GI50 in assay [8] was 26.7 µM; in assay [9], 26.9 µM; in [10], 15.6 µM. Further, the TGI is above 100 µM in assay [2]; above 100 µM in assay [3]; above 100 µM in assay [4]; above 100 µM in assay [5]; 37.3 µM in assay [6]; 89.7 µM in [7]. The TGI is above 100 µM in assay [8], 94.3 µM in assay [9] and 29.1 µM in assay [10].

Regarding `CC(Br)C(=O)c1ccc2cc(Br)c3ccccc3c2c1` (configuration not stated), the TGI stood at 27 µM in [1]; 30.1 µM in [2]; 30.9 µM in [3]; 29.9 µM in assay [4]; 26.6 µM in [5]; 30.8 µM in assay [6]. Also, the TGI is 26.3 µM in assay [7], 23.3 µM in assay [8], 31.4 µM in [9] and 27.3 µM in assay [10].

Turning to `NCCCCN`, the TGI in assay [2], in assay [3], in assay [4], in assay [5], in assay [6] and in [7] was above 100 µM each time. Besides, the TGI in assay [9] and in [10] was above 100 µM each time.

On to `CCOC(=O)C(=CNC(Cc1c[nH]c2ccccc12)C(=O)OC)C(=O)OCC` (configuration not stated), for which the TGI in assay [3], in [5], in assay [6], in [7], in [8] and in [9] was above 100 µM throughout. In assay [10], this compound registered a TGI above 100 µM.

As to `CC(C)(C)c1ccc(O)c(Br)c1`, the TGI in assay [1], in assay [2], in [3], in assay [4], in [5] and in [7] was above 100 µM in each case. Moreover, the TGI in [8], in assay [9] and in assay [10] was above 100 µM each time.

Turning to `CC(C)(C)OC(=O)N1C(C2=COc3ccccc3O2)=COc2cccnc21`, the TGI in assay [1] was 4.68 µM; in [2], 3.08 µM; in assay [3] it was 3.67 µM; in [4], 4.98 µM; in [5], 3.31 µM; in [6] it was 3.9 µM. Moreover, the TGI in assay [7] was found to be 3.35 µM; in assay [8], 3.37 µM; in assay [9] it was 3.99 µM; in [10], 3.17 µM.

As to `O=C(CSc1nc2ccc(Cl)cc2c(=O)n1-c1ccccc1)N=Nc1c(O)[nH]c2ccc(F)cc12`, the TGI in assay [1] amounted to 7.53 µM; in assay [2] it was 4.64 µM; in [3], 9.77 µM; in assay [4], 3.28 µM; in assay [5] it was 4 µM; in assay [6], 8.51 µM. Besides, the TGI in assay [7] worked out at 4.39 µM; in assay [8], 4.67 µM; in [9], 14.9 µM; in assay [10], 10.3 µM.

Take `Cc1cc(N2CCOCC2)nc(N(CCCNc2ccnc3cc(Cl)ccc23)Cc2ccc3c(c2)OCO3)n1`: the GI50 is 1.45 µM in [3]; 0.464 µM in [4]; 0.253 µM in [5]; 1560 nM in assay [6]; 1.54 µM in assay [10]. For the same compound, the TGI in assay [3] is 2.99 µM; in assay [4] it was 1.63 µM; in assay [5], 0.738 µM; in [6], 3.98 µM; in assay [10] it was 2.88 µM.

In the case of `Cc1cc(O)c2c(c1O)C(=O)c1c(O)ccc(O)c1C2=O`, the TGI in assay [1], in [2], in [3], in [4], in assay [5] and in assay [6] was above 100 µM throughout. Besides, the TGI in assay [7], in assay [8], in assay [9] and in assay [10] was above 100 µM throughout.

Regarding `NC(N)=NS(=O)(=O)c1ccc(Nc2c3ccccc3nc3c(C(=O)N4CCN(CCO)CC4)ccc(Cl)c23)cc1`, the TGI in assay [3], in assay [4], in assay [5], in assay [6], in assay [7] and in assay [8] was above 100 µM in each case. The TGI in [9] and in [10] was above 100 µM throughout.

Consider `COC1OC(C(=O)CP(=O)(OC)OC)C(OCc2ccccc2)C(OCc2ccccc2)C1OCc1ccccc1` (configuration not stated), for which the TGI in assay [1] is 29.8 µM and 30.8 µM; in assay [2], 30.5 µM; in assay [3] it was 31.1 µM and 29.4 µM; in assay [4], 29 µM and 30.2 µM; in assay [5] it was 30.3 µM and 28.7 µM; in [6], 37.1 µM and 34.7 µM. In addition, the TGI in [7] was 35.9 µM and 35.4 µM; in assay [8], 30.1 µM and 30 µM; in [9], 28.1 µM and 30.3 µM; in assay [10], 28.6 µM and 28.7 µM.
